Read-outs that look alike come from different tables or passages of the source. Marks after values point to notes of the source that are not given here.
Key:
[1] = system: pAkt in epidermal keratinocytes; experiment: Pharmacodynamics: immunohistochemistry on skin punch biopsies, pAkt; conditions: pretreatment versus on-therapy (Day 21)
clinical = conditions: human, in vivo; for AUC(0-t): AUC0–24,ss; for CL/F: CL/Fss; for Cmax: Cmax,ss; for Vd/F: Vz/Fss
[2] = system: patients with advanced solid tumors; experiment: Phase I dose escalation: dose-limiting toxicities and maximum tolerated dose; conditions: oral once daily, 3-week-on/1-week-off schedule
[3] = system: p27^KIP1 in epidermal keratinocytes; experiment: Pharmacodynamics: immunohistochemistry on skin punch biopsies, p27KIP1; conditions: doses of ≥ 55 mg/day, Day 21
[4] = system: pMAPK in epidermal keratinocytes; experiment: Pharmacodynamics: immunohistochemistry on skin punch biopsies, pMAPK; conditions: pretreatment versus on-therapy (Day 21)
advanced solid tumors = experiment: Antitumor activity, objective tumor response by RECIST 1.0
[5] = Plasma pharmacokinetics, non-compartmental analysis; conditions: 65 mg once daily, Day 21, individual values of 2 patients
[6] = system: patients with advanced solid tumors; conditions: human, in vivo
[7] = human, in vivo
[8] = system: Ki-67 in epidermal keratinocytes; conditions: doses of ≥ 55 mg/day, Day 21 versus pretreatment
[9] = system: patients with advanced solid tumors; experiment: Safety and tolerability: adverse events graded by CTCAE version 3.0; type: in vivo, human

For `CN(C)C/C=C/C(=O)Nc1cc2c(Nc3ccc(F)c(Cl)c3)ncnc2cc1O[C@H]1CCOC1` [afatinib], the “change in level of pAkt in paired skin biopsies” value [1] was “no significant difference”, the Tmax (clinical; 10 mg) was 4 h and the half-life (clinical; 10 mg) was 35.7 h. The AUC(0-t) (clinical; 10 mg) was 63.7 ng·h/mL, the CL/F (clinical; 10 mg) was 2620 mL/min and the Cmax (clinical; 10 mg) was 3.99 ng/mL. It also gave a Vd/F (clinical; 10 mg) of 8080 L, a half-life (clinical; 20 mg) of 43.2 h and an AUC(0-t) (clinical; 20 mg) of 455 ng·h/mL. The CL/F (clinical; 20 mg) was 732 mL/min, the Cmax (clinical; 20 mg) was 31.3 ng/mL and the Vd/F (clinical; 20 mg) was 2740 L. The half-life (clinical; 40 mg) was 42.8 h, the CL/F (clinical; 40 mg) was 734 mL/min and the Cmax (clinical; 40 mg) was 58.9 ng/mL. It also gave a Vd/F (clinical; 40 mg) of 2720 L, a half-life (clinical; 55 mg) of 35.1 h and an AUC(0-t) (clinical; 55 mg) of 1360 ng·h/mL. For the same compound, the CL/F (clinical; 55 mg) was 653 mL/min, the Cmax (clinical; 55 mg) was 90.8 ng/mL and the Vd/F (clinical; 55 mg) was 2040 L. For the same compound, the Tmax (clinical; 65 mg) was 9 h, the “maximum tolerated dose (MTD)” value [2] was 55 mg/day and the “increase in the total number of p27^KIP1-positive epidermal keratinocytes versus pretreatment” value [3] was “about 16%”. The “change in level of pMAPK in normal skin punch biopsies” value [4] was “No significant changes”, the “Discontinued due to disease progression, n (%)” value (advanced solid tumors; 10 mg/day) was 3 (100.0) n (%) and the “Discontinued due to disease progression, n (%)” value (advanced solid tumors; 20 mg/day) was 2 (33.3) n (%). For the same compound, the “Discontinued due to disease progression, n (%)” value (advanced solid tumors; 40 mg/day) was 3 (37.5) n (%), the “Discontinued due to disease progression, n (%)” value (advanced solid tumors; 55 mg/day) was 8 (40.0) n (%) and the “Discontinued due to disease progression, n (%)” value (advanced solid tumors; 65 mg/day) was 1 (16.7) n (%). The confirmed objective responses (advanced solid tumors; RECIST 1.0, all doses) was “no confirmed objective responses”, the “Discontinued due to disease progression, n (%)” value (advanced solid tumors; Total, all doses) was 17 (39.5) n (%) and the “decrease in tumor size” value (advanced solid tumors; one patient with CRC) was 14%. For the same compound, the “decrease in tumor size” value (advanced solid tumors; one patient with NSCLC) was 27%, the tumor shrinkage (advanced solid tumors; one patient with parotid carcinoma, Cycle 4, maintained until Cycle 6) was 13% and the “patients with stable disease for at least 16 weeks” value (advanced solid tumors; received at least 5 cycles of treatment) was 8 patients. The “t½,ss” value [5] was 25.8 h, the “Discontinued due to DLT, n (%)” value [6] was 4 (9.3) n (%) and the “DLTs occurring during the first treatment cycle, n (%)” value ([6]; 28 day) was 11 (25.6) n (%). The “recommended dose for further studies using this schedule” value ([6]; 28 day) was 40 mg/day, the “time to reach steady-state” value [7] was at most 8 days and the “AUC0–24,ss,norm” value ([7]; 10 mg) was 6.37 (99.8) [ng·h/mL]/mg. The “Cmax,ss,norm” value ([7]; 10 mg) was 0.399 (83.7) [ng/mL]/mg, the “AUC0–24,ss,norm” value ([7]; 20 mg) was 22.8 (61.8) [ng·h/mL]/mg and the “Cmax,ss,norm” value ([7]; 20 mg) was 1.57 (94.1) [ng/mL]/mg. The “AUC0–24,ss,norm” value ([7]; 40 mg) was 22.7 (69.1) [ng·h/mL]/mg, the “Cmax,ss,norm” value ([7]; 40 mg) was 1.47 (83.7) [ng/mL]/mg and the “AUC0–24,ss,norm” value ([7]; 55 mg) was 24.7 (68.1)^b [ng·h/mL]/mg. For the same compound, the “Cmax,ss,norm” value ([7]; 55 mg) was 1.65 (67.8)^b [ng/mL]/mg, the “reduction of the number of Ki-67-positive cells in skin biopsies” value [8] was 31% and the drug-related diarrhea ([9]; 10 mg) was “no drug-related diarrhea was observed”. The “treatment-related Grade ≥2 AEs” value ([9]; 10 mg dose cohort) was “No treatment-related Grade ≥2 AEs were observed”, the drug-related diarrhea ([9]; 20 mg) was “no drug-related diarrhea was observed” and the “patients who developed diarrhea” value ([9]; 40 mg) was 50%. The “Discontinued due to other toxicity, n (%)” value ([9]; 40 mg/day) was 1 (12.5) n (%), the “patients who developed diarrhea” value ([9]; 55 mg) was 90% and the “Discontinued due to other toxicity, n (%)” value ([9]; 55 mg/day) was 4 (20.0) n (%). The “Discontinued due to other toxicity, n (%)” value ([9]; 65 mg/day) was 2 (33.3) n (%), the “patients who developed diarrhea” value ([9]; 65 mg/day) was 100% and the “Discontinued due to other toxicity, n (%)” value ([9]; Total, all doses) was 7 (16.3) n (%). The “Grade 4 or 5 AEs” value ([9]; all doses) was “No Grade 4 or 5 AEs were observed”, the “Grade ≥2 reductions in LVEF” value ([9]; all doses) was “No patients had Grade ≥2 reductions in LVEF” and the “cases in which diarrhea started within 1–7 days after treatment initiation” value ([9]; all doses) was 80%. The “patients who experienced a serious adverse event (SAE)” value ([9]; all doses) was 34.9%, the “patients with drug-related AEs within their first 28-day cycle” value ([9]; all doses) was 38 patients and the “skin events considered to be related to afatinib” value ([9]; all doses) was 91%. It also gave a drug-related anorexia ([9]; all doses, entire trial) of 16.3%, a drug-related diarrhea ([9]; all doses, entire trial) of 65.1% and a drug-related epistaxis ([9]; all doses, entire trial) of 23.3%. It also gave a drug-related fatigue ([9]; all doses, entire trial) of 20.9%, a drug-related mucosal inflammation ([9]; all doses, entire trial) of 23.3% and a drug-related nausea ([9]; all doses, entire trial) of 41.9%. It also gave a drug-related rash ([9]; all doses, entire trial) of 58.1%, a drug-related stomatitis ([9]; all doses, entire trial) of 25.6% and a drug-related vomiting ([9]; all doses, entire trial) of 34.9%. For the same compound, the “start of skin events after treatment initiation” value ([9]; majority of cases) was 7 to 28 days, the “start of diarrhea after afatinib treatment initiation” value ([9]; majority of cases (80 %)) was 1 to 7 days and the “deaths during afatinib administration considered to be related to afatinib” value ([9]; three deaths occurred) was “None”.
